The values that follow come from ChEMBL document CHEMBL4350989, “Discovery of 2,4-diarylaminopyrimidine derivatives bearing dithiocarbamate moiety as novel FAK inhibitors with antitumor and anti-angiogenesis activities” (Eur J Med Chem, 2019).

For experiment [1], the system named is HCT-116. The experiment in a line: Induction of apoptosis in human HCT116 cells assessed as necrotic cells at 0.1 uM after 24 hrs by Annexin-V and 7-AAD staining based flow cytometric analysis (reference value: 0.68%). Type of experiment: functional. On the technique in general: In flow cytometry, cells or beads pass a laser one at a time.
In experiment [2] the test system is MCF7. The experiment in a line: Induction of apoptosis in human MCF7 cells assessed as necrotic cells at 0.005 uM after 24 hrs by Annexin-V and 7-AAD staining based flow cytometric analysis (reference value: 0.16%). Type of experiment: functional.
In experiment [3] the test system is HCT-116. The experiment in a line: Induction of apoptosis in human HCT116 cells assessed as viable cells at 0.05 uM after 24 hrs by Annexin-V and 7-AAD staining based flow cytometric analysis (reference value: 88.6%). Type of experiment: functional. The settings on record: HCT-116, 24 h, read-out: Activity.
Experiment [4] deals with HCT-116. The experiment in a line: Induction of cell cycle arrest in human HCT116 cells assessed as accumulation at G0/G1 phase at 0.1 uM after 24 hrs by 7-AAD staining-based flow cytometric analysis (reference value: 50.53%). Type of experiment: functional.
For experiment [5], the system named is MCF7. The experiment in a line: Induction of cell cycle arrest in human MCF7 cells assessed as accumulation at G2/M phase at 0.05 uM after 24 hrs by 7-AAD staining-based flow cytometric analysis (reference value: 11.48%). Type of experiment: functional.
In experiment [6] the test system is MCF7. The experiment in a line: Induction of cell cycle arrest in human MCF7 cells assessed as accumulation at G0/G1 phase at 0.01 uM after 24 hrs by 7-AAD staining-based flow cytometric analysis (reference value: 62.45%). Type of experiment: functional.
Experiment [7] has as its system MCF7. The experiment in a line: Induction of cell cycle arrest in human MCF7 cells assessed as accumulation at G2/M phase at 0.01 uM after 24 hrs by 7-AAD staining-based flow cytometric analysis (reference value: 11.48%). Type of experiment: functional.
Experiment [8] concerns MCF-10A. The experiment in a line: Cytotoxicity against human MCF10A cells assessed as reduction in cell viability after 72 hrs by MTS assay.
Experiment [9] has as its system MCF7. The experiment in a line: Induction of cell cycle arrest in human MCF7 cells assessed as accumulation at S phase at 0.01 uM after 24 hrs by 7-AAD staining-based flow cytometric analysis (reference value: 26.07%). Type of experiment: functional.
For experiment [10], the system named is HCT-116. The experiment in a line: Induction of apoptosis in human HCT116 cells after 24 hrs by Annexin-V and 7-AAD staining based flow cytometric analysis. Type of experiment: functional, cell-based.
In experiment [11] the test system is MCF7. The experiment in a line: Induction of apoptosis in human MCF7 cells assessed as viable cells at 0.05 uM after 24 hrs by Annexin-V and 7-AAD staining based flow cytometric analysis (reference value: 90.2%). Type of experiment: functional. As to conditions: MCF7, 24 h, read-out: Activity.
For experiment [12], the species on record is Homo sapiens. As to conditions: 0.05 to 0.1 uM.
Description: Antimigratory activity against human MCF7 cells assessed as reduction in cell migration at 0.05 to 0.1 uM incubated for 30 mins and measured after 24 hrs by crystal violet staining based inverted microscopic analysis
Experiment [13] deals with MCF7. The experiment in a line: Induction of apoptosis in human MCF7 cells assessed as late apoptotic cells at 0.05 uM after 24 hrs by Annexin-V and 7-AAD staining based flow cytometric analysis (reference value: 7.63%). Type of experiment: functional.
Experiment [14] is filed under the species Homo sapiens. The experiment in a line: Induction of apoptosis in human […] after 24 hrs by Annexin-V and 7-AAD staining based flow cytometric analysis. Type of experiment: functional, cell-based.
Experiment [15] concerns HCT-116. The experiment in a line: Induction of apoptosis in human HCT116 cells assessed as viable cells at 0.1 uM after 24 hrs by Annexin-V and 7-AAD staining based flow cytometric analysis (reference value: 88.6%). Type of experiment: functional. The settings on record: HCT-116, 24 h, read-out: Activity.
Experiment [16] has as its system HCT-116. The experiment in a line: Induction of cell cycle arrest in human HCT116 cells assessed as accumulation at S phase at 0.005 uM after 24 hrs by 7-AAD staining-based flow cytometric analysis (reference value: 37.20%). Type of experiment: functional.
Experiment [17] relates to HCT-116. The experiment in a line: Induction of apoptosis in human HCT116 cells assessed as late apoptotic cells at 0.1 uM after 24 hrs by Annexin-V and 7-AAD staining based flow cytometric analysis (reference value: 2.63%). Type of experiment: functional.
Experiment [18] relates to HCT-116. The experiment in a line: Induction of apoptosis in human HCT116 cells assessed as necrotic cells at 0.05 uM after 24 hrs by Annexin-V and 7-AAD staining based flow cytometric analysis (reference value: 0.68%). Type of experiment: functional.
The test system of experiment [19] is HCT-116. The experiment in a line: Induction of cell cycle arrest in human HCT116 cells assessed as accumulation at G2/M phase at 0.05 uM after 24 hrs by 7-AAD staining-based flow cytometric analysis (reference value: 12.26%). Type of experiment: functional.

The source made the active and inactive calls. The calls are words filed in the database; no cut-off is given here.

For `CNC(=O)c1ccccc1Nc1nc(Nc2ccc(C(=O)N3CCN(C(=S)SCCN(C)C)CC3)cc2)ncc1C(F)(F)F`, the Activity in experiment [1] is 0%; in [2], 0.16%; in [4], 5.14%; in experiment [5], 86.08%; in [6], 9.52%; in [7], 81.73%. The Activity in experiment [9] is 8.75%; in experiment [10] it was “Dose-dependent effect”; in experiment [13], 25.7%; in [14], “Dose-dependent effect”; in [16], 41.86%; in experiment [17], 0.16%. The Activity in experiment [18] is on record as 0.29%; in experiment [19] it was 87.56%. Also, the results for the viability at 0.05 µM in experiment [3] and in experiment [11] were 79.3% and 60.1%, respectively. In [8], the IC50 (as a rule, the concentration needed to halve the response being measured) was determined as 280 nM. The inhibition result in experiment [12] was “Active”. Also, in experiment [15], the viability at 0.1 µM was 78.4%.
